Reference: publication PMC9030254, “Target Hopping from Protein Kinases to PXR: Identification of Small-Molecule Protein Kinase Inhibitors as Selective Modulators of Pregnane X Receptor from TüKIC Library” (Cells, 2022)

Columns and labels:
Test in all cases: Kinase profiling
Type in all cases: biochemical
[1] = target: T1, ERK2 (Homo sapiens, UniProt P28482)
T1 construct: purchased ProQinase (Freiburg, Germany)
Protocol: (§1) The analysis was performed by ProQinase (Freiburg, Germany).

[2] = target: T2, EPHB1 (Homo sapiens, UniProt P54762)
T2 construct: purchased ProQinase (Freiburg, Germany)
T2 sequence (P54762 18-984): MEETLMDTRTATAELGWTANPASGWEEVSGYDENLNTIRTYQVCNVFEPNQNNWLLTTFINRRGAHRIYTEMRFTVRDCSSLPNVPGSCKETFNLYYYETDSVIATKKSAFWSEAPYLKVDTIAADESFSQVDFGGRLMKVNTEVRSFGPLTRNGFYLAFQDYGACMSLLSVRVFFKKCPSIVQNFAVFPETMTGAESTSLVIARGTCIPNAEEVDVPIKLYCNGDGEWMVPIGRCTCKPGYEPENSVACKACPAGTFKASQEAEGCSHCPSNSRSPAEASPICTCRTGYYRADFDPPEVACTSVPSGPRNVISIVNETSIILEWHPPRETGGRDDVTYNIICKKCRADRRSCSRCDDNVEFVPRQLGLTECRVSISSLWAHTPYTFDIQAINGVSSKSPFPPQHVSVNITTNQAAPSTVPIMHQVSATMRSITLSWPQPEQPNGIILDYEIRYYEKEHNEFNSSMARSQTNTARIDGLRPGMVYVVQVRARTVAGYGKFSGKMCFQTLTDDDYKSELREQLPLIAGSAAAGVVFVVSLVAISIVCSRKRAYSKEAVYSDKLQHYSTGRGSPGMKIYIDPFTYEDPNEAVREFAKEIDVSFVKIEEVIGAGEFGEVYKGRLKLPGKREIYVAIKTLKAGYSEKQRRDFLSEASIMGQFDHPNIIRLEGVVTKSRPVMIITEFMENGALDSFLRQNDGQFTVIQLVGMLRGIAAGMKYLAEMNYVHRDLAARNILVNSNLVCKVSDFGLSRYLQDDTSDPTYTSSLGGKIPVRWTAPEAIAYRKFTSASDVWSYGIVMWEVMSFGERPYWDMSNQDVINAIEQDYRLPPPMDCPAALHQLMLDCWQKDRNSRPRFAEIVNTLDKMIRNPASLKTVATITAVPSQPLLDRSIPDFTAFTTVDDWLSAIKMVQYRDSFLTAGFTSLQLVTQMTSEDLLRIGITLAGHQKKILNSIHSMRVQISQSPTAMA
Protocol: as §1

[3] = target: T3, JAK2 (Homo sapiens, UniProt O60674)
T3 construct: purchased ProQinase (Freiburg, Germany)
Protocol: as §1

[4] = target: T4, PDGFRbeta (Homo sapiens, UniProt P09619)
T4 construct: purchased ProQinase (Freiburg, Germany)
Protocol: as §1

[5] = target: T5, PKCzeta (Homo sapiens, UniProt Q05513)
T5 construct: purchased ProQinase (Freiburg, Germany)
T5 sequence (Q05513 1-592): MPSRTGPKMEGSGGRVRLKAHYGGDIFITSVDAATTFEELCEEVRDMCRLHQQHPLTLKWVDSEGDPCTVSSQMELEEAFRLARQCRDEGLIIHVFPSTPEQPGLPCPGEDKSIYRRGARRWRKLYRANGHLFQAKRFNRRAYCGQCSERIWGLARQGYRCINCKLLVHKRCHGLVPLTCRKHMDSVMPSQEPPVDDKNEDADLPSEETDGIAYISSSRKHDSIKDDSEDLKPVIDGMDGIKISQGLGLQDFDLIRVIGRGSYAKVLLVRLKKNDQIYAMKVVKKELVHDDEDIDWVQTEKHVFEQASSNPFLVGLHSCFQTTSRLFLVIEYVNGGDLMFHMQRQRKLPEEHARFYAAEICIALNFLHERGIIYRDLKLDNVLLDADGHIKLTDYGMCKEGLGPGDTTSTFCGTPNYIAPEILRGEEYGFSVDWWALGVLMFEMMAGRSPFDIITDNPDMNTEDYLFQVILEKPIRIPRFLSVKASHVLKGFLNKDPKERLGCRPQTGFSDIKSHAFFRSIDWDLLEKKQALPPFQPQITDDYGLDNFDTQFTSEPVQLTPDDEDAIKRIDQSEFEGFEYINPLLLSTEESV
Protocol: as §1

T3 sequence (O60674 whole entry): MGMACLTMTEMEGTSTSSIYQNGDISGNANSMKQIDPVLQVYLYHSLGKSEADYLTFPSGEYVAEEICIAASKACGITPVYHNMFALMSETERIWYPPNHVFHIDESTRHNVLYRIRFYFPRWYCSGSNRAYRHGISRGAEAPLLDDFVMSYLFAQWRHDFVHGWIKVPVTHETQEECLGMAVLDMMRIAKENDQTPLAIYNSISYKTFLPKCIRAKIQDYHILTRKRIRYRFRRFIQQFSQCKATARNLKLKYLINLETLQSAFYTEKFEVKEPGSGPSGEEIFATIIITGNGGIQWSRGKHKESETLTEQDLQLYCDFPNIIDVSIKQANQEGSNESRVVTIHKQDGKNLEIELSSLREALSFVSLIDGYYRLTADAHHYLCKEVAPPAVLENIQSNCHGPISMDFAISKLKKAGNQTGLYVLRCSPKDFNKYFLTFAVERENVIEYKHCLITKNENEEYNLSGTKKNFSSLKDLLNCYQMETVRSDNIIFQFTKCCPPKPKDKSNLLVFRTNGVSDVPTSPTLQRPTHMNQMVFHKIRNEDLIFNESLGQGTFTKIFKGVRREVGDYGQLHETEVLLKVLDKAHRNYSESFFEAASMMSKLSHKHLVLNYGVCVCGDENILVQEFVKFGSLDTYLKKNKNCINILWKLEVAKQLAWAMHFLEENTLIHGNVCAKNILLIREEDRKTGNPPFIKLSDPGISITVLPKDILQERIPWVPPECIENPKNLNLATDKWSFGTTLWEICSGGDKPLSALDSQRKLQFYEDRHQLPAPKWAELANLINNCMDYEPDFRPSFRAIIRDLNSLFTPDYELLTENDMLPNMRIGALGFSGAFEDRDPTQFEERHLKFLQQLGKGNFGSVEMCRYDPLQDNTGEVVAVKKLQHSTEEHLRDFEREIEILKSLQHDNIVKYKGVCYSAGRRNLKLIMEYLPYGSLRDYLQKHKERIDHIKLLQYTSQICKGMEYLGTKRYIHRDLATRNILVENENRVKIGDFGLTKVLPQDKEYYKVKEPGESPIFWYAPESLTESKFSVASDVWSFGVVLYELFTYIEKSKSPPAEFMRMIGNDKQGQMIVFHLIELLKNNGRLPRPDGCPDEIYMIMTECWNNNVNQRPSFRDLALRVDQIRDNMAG
T4 sequence (P09619 33-1106): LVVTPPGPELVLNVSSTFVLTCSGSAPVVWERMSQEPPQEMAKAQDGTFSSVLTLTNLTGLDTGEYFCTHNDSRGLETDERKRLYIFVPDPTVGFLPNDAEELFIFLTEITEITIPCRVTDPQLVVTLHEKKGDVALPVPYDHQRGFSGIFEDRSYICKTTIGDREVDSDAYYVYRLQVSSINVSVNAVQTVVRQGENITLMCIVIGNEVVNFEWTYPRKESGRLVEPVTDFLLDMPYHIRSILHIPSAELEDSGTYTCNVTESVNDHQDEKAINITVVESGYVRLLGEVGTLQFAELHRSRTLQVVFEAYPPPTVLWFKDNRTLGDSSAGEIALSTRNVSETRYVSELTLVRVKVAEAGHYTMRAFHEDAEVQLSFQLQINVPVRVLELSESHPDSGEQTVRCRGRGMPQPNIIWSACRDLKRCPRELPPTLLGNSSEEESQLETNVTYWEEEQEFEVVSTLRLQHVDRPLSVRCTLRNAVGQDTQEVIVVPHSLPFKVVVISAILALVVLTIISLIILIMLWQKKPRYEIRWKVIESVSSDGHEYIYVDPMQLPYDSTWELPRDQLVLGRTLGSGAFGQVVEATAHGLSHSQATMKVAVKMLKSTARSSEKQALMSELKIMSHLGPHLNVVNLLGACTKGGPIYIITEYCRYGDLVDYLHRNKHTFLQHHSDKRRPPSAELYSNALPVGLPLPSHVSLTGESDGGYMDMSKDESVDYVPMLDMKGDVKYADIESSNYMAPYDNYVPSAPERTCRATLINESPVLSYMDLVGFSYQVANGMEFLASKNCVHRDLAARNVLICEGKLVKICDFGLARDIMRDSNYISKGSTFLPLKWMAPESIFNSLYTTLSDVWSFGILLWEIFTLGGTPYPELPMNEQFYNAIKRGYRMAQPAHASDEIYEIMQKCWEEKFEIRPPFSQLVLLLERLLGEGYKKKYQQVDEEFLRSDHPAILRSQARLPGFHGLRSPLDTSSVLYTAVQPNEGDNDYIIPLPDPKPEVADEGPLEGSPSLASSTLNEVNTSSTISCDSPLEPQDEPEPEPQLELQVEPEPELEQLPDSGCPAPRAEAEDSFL
T1 sequence (P28482 whole entry): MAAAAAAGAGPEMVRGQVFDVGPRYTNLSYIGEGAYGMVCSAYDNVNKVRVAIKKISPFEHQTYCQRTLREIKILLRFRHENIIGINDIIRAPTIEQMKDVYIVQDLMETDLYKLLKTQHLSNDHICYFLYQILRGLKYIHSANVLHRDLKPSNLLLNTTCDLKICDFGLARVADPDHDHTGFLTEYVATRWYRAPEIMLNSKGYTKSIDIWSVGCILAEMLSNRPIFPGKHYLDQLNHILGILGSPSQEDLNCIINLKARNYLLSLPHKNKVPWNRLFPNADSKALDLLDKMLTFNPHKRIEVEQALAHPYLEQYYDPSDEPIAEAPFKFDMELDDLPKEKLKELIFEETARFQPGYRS

Structure (SMILES) | Residual activity ([1]; 1.0E-05 M) | Residual activity ([1]; 1.0E-06 M) | Residual activity ([2]; 1.0E-05 M) | Residual activity ([2]; 1.0E-06 M) | Residual activity ([3]; 1.0E-05 M) | Residual activity ([3]; 1.0E-06 M) | Residual activity ([4]; 1.0E-05 M) | Residual activity ([4]; 1.0E-06 M) | Residual activity ([5]; 1.0E-05 M) | Residual activity ([5]; 1.0E-06 M)
O=C(Cc1ccccc1)Nc1ccc(F)c(Nc2ccc3c(c2)CCCCC3=O)c1 [Compound 100] | 90 % of control | 101 % of control | 103 % of control | 113 % of control | 85 % of control | 94 % of control | 99 % of control | 100 % of control | 102 % of control | 92 % of control
O=C(Nc1ccc(F)c(Nc2ccc3c(c2)CCCCC3=O)c1)c1cccc(F)c1 [Compound 109] | 93 % of control | 95 % of control | 95 % of control | 113 % of control | 89 % of control | 90 % of control | 99 % of control | 98 % of control | 96 % of control | 87 % of control
